Test results as given in ChEMBL document CHEMBL3526118, “Combination of GSH trapping and time-dependent inhibition assays as a predictive method of drugs generating highly reactive metabolites” (Drug Metab Dispos, 2011).

What was measured:
Liver microsome [1] = assay: Covalent binding in human liver microsomes measured per mg of protein using radiolabelled compound at 10 uM after 1 hr incubation by liquid scintillation counting
Liver microsome [2] = assay: Metabolic activation in human liver microsomes assessed as [3H]GSH adduct formation rate measured per mg of protein at 100 uM by [3H]GSH trapping assay
CYP1A2 = target: T1, CYP1A2 (Homo sapiens, UniProt P05177); assay: in vitro
T1 sequence (P05177 whole entry): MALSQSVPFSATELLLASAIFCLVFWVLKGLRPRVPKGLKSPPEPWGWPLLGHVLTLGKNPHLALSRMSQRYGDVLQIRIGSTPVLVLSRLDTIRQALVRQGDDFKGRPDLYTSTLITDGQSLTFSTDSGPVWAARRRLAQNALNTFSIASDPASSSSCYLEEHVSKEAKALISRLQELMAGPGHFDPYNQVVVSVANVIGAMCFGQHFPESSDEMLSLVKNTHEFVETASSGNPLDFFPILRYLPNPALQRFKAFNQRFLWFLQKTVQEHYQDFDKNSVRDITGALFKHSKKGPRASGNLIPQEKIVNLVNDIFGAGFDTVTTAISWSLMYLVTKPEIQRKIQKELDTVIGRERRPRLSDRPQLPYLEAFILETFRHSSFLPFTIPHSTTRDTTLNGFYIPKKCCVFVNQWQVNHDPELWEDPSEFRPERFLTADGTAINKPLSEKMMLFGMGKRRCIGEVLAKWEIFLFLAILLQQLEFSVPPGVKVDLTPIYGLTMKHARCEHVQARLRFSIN

CYP2B6 = target: T2, CYP2B6 (Homo sapiens, UniProt P20813); assay: in vitro
T2 sequence (P20813 whole entry): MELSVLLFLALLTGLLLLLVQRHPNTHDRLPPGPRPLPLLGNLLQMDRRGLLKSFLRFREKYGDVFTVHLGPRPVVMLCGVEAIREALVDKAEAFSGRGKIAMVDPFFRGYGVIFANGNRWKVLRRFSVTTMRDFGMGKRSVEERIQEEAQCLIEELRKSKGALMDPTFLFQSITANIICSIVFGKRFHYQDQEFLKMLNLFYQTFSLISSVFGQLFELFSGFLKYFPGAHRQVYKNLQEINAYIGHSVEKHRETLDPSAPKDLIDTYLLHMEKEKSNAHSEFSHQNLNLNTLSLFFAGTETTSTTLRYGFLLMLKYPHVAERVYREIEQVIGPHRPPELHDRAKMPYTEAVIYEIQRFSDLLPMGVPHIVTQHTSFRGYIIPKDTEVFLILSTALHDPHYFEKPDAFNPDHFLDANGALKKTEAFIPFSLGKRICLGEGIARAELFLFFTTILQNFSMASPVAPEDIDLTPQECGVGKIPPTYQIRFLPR

CYP2C9 = CYP2C9 (Homo sapiens, UniProt P11712); assay: in vitro
CYP2C19 = CYP2C19 (Homo sapiens, UniProt P33261); assay: in vitro
CYP2D6 = CYP2D6 (Homo sapiens, UniProt P10635); assay: in vitro
CYP3A4 = CYP3A4 (Homo sapiens, UniProt P08684); assay: in vitro
CYP2C8 = target: T3, CYP2C8 (Homo sapiens, UniProt P10632); assay: in vitro
T3 sequence (P10632 whole entry): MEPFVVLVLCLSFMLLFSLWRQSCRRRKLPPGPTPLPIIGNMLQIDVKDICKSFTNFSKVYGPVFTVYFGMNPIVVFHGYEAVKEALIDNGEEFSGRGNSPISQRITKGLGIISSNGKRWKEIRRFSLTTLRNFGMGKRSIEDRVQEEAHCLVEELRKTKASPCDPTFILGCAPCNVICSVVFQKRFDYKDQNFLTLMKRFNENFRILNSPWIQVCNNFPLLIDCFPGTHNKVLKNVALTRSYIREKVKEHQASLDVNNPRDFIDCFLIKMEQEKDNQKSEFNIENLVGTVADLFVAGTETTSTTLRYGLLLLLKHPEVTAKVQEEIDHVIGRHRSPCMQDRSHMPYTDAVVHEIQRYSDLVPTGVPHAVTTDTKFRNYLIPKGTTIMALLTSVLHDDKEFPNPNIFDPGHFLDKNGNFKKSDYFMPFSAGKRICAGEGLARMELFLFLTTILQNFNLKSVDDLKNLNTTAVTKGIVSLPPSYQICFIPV

[3] = Intrinsic clearance for reactive metabolites formation per mg of protein based on cytochrome P450 (unknown origin) inactivation rate by TDI assay; details: human
[4] = Intrinsic clearance for reactive metabolites formation assessed as summation of [3H]GSH adduct formation rate-based reactive metabolites formation and cytochrome P450 (unknown origin) inactivation rate-based reactive metabolites formation; details: human

Chain of CYP2D6 (P10635 whole entry): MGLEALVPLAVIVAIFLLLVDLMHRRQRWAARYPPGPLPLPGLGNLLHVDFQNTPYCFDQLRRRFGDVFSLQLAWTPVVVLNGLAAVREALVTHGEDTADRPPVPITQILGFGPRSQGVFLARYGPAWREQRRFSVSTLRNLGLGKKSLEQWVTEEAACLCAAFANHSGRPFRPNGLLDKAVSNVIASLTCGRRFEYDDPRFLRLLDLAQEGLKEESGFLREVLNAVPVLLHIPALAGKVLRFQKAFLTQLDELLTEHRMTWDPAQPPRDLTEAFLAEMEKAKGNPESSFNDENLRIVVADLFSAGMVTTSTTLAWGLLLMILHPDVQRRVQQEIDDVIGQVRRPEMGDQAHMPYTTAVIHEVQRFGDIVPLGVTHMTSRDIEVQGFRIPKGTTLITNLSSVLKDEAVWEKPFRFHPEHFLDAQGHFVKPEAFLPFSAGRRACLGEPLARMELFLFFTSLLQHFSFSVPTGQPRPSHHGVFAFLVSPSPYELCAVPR
Chain of CYP2C9 (P11712 whole entry): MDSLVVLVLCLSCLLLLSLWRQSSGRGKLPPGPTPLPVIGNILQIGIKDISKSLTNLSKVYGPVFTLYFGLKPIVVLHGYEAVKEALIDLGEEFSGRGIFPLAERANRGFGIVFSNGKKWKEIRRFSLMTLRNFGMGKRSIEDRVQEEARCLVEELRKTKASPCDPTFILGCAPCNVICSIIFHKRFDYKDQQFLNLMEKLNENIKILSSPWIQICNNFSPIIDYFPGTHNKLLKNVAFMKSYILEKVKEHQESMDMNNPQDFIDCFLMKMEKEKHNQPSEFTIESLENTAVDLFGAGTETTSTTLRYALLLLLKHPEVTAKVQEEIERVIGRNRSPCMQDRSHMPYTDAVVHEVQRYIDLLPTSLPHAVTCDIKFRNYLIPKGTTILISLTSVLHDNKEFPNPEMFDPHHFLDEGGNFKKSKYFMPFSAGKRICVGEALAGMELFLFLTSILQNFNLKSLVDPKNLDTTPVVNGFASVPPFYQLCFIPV
Chain of CYP3A4 (P08684 whole entry): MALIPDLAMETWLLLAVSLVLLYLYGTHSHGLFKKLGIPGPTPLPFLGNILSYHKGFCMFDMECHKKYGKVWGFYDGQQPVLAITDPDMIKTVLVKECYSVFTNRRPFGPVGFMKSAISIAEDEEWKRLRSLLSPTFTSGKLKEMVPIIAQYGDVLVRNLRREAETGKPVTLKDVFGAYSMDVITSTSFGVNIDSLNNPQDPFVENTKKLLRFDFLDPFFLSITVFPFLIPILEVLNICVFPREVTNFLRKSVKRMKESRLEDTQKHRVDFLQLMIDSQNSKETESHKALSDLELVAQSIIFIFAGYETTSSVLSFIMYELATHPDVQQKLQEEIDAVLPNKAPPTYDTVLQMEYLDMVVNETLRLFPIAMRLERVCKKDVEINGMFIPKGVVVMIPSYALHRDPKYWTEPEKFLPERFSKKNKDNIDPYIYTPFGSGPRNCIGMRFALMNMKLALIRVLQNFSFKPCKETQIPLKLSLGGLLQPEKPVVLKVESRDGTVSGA
Chain of CYP2C19 (P33261 whole entry): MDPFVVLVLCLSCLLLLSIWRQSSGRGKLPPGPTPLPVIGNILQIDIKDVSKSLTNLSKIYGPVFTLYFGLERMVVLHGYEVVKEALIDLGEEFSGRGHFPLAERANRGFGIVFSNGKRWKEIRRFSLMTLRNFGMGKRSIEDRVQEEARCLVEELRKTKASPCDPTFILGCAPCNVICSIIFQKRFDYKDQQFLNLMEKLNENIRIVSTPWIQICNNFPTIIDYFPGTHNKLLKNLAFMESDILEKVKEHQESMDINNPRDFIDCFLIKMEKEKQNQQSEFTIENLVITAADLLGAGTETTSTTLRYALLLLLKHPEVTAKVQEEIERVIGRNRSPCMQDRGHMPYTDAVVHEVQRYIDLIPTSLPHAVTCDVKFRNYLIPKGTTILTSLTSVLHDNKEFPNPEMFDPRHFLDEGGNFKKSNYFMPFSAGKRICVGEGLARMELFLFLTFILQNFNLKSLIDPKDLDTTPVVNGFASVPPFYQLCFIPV

Structure (SMILES) | PB (Liver microsome [1]) | Drug metabolism (Liver microsome [2]) | inhibition at 100 µM (CYP1A2) | inhibition at 100 µM (CYP2B6) | inhibition at 100 µM (CYP2C9) | inhibition at 100 µM (CYP2C19; human liver microsomes) | inhibition at 100 µM (CYP2D6) | inhibition at 100 µM (CYP3A4) | inhibition at 100 µM (CYP2C8) | inhibition at 100 µM (CYP2C19; microsomes) | clearance [3] | clearance [4]
CCCCC(=O)N(Cc1ccc(-c2ccccc2-c2nnn[nH]2)cc1)[C@H](C(=O)O)C(C)C | 1.4 pmol | metabolite_not_detected | < 10% | < 10% | < 10% | < 10% | < 10% | < 10% | < 10% | – | – | –
COc1ccc(CCN(C)CCCC(C#N)(c2ccc(OC)c(OC)c2)C(C)C)cc1OC (centres undefined) | – | – | < 10% | 10% | < 10% | – | < 10% | 51% | < 10% | < 10% | – | –
Cc1c(N(C)C)c(=O)n(-c2ccccc2)n1C [AMINOPYRINE] | 30.9 pmol | metabolite_not_detected | < 10% | < 10% | < 10% | – | < 10% | < 10% | < 10% | < 10% | – | –
CC(C)c1c(C(=O)Nc2ccccc2)c(-c2ccccc2)c(-c2ccc(F)cc2)n1CC[C@@H](O)C[C@@H](O)CC(=O)O [ATORVASTATIN] | 352.3 pmol | 12.7 pmol/min | – | < 10% | – | – | – | – | < 10% | – | – | –
Cn1c(=O)c2c(ncn2C)n(C)c1=O [CAFFEINE] | 9.9 pmol | metabolite_not_detected | < 10% | < 10% | < 10% | < 10% | < 10% | < 10% | < 10% | – | – | –
CN1CCN(C2=Nc3cc(Cl)ccc3Nc3ccccc32)CC1 [CLOZAPINE] | – | – | 12% | < 10% | < 10% | – | < 10% | – | < 10% | – | – | –
COc1cc2c(cc1OC)C(=O)C(CC1CCN(Cc3ccccc3)CC1)C2 (centres undefined) [DONEPEZIL] | 29.7 pmol | metabolite_not_detected | – | – | – | – | – | – | – | – | – | –
CC[C@H]1OC(=O)[C@H](C)[C@@H](O[C@H]2C[C@@](C)(OC)[C@@H](O)[C@H](C)O2)[C@H](C)[C@@H](O[C@@H]2O[C@H](C)C[C@H](N(C)C)[C@H]2O)[C@](C)(O)C[C@@H](C)C(=O)[C@H](C)[C@@H](O)[C@]1(C)O [ERYTHROMYCIN] | 57.1 pmol | metabolite_not_detected | < 10% | < 10% | < 10% | < 10% | < 10% | 45% | < 10% | – | 0.021 µL/min/mg | 0.021 µL/min/mg
NS(=O)(=O)c1cc(C(=O)O)c(NCc2ccco2)cc1Cl [FUROSEMIDE] | – | – | – | < 10% | – | – | – | – | < 10% | – | – | –
CN(C)CCCN1c2ccccc2CCc2ccccc21 [IMIPRAMINE] | – | – | < 10% | < 10% | < 10% | – | < 10% | < 10% | < 10% | – | – | –
COc1ccc2c(c1)c(CC(=O)O)c(C)n2C(=O)c1ccc(Cl)cc1 [INDOMETHACIN] | 14.7 pmol | metabolite_not_detected | < 10% | < 10% | < 10% | < 10% | < 10% | < 10% | 14% | – | 0.001 µL/min/mg | 0.001 µL/min/mg
C[C@H]1COc2c(N3CCN(C)CC3)c(F)cc3c(=O)c(C(=O)O)cn1c23.C[C@H]1COc2c(N3CCN(C)CC3)c(F)cc3c(=O)c(C(=O)O)cn1c23.O [LEVOFLOXACIN] | – | metabolite_not_detected | < 10% | < 10% | < 10% | < 10% | < 10% | – | < 10% | – | – | –
CCCc1nc(C(C)(C)O)c(C(=O)O)n1Cc1ccc(-c2ccccc2-c2nnn[nH]2)cc1 [OLMESARTAN] | 3.4 pmol | metabolite_not_detected | < 10% | < 10% | < 10% | < 10% | < 10% | < 10% | < 10% | – | – | –
CC[C@H](C)C(=O)O[C@H]1C[C@H](O)C=C2C=C[C@H](C)[C@H](CC[C@@H](O)C[C@@H](O)CC(=O)O)[C@H]21 [PRAVASTATIN] | 3.7 pmol | metabolite_not_detected | < 10% | < 10% | < 10% | – | < 10% | < 10% | < 10% | < 10% | – | –
CCN(CC)CCNC(=O)c1ccc(N)cc1 [PROCAINAMIDE] | 5.1 pmol | 41.3 pmol/min | < 10% | < 10% | < 10% | – | < 10% | < 10% | < 10% | – | – | –
CC(C)NCC(O)COc1cccc2ccccc12 (centres undefined) [PROPRANOLOL] | – | – | 25% | < 10% | < 10% | – | < 10% | < 10% | < 10% | < 10% | 0.004 µL/min/mg | 0.031 µL/min/mg
CC(C)c1nc(CN(C)C(=O)N[C@H](C(=O)N[C@@H](Cc2ccccc2)C[C@H](O)[C@H](Cc2ccccc2)NC(=O)OCc2cncs2)C(C)C)cs1 [RITONAVIR] | 253.3 pmol | metabolite_not_detected | – | – | – | – | – | – | – | – | 3.55 µL/min/mg | 3.55 µL/min/mg
Cc1cc(NS(=O)(=O)c2ccc(N)cc2)no1 [SULFAMETHOXAZOLE] | – | – | – | < 10% | – | – | – | – | < 10% | – | – | –
Nc1c2c(nc3ccccc13)CCCC2 [TACRINE] | 137 pmol | metabolite_not_detected | 28% | < 10% | < 10% | – | 24% | < 10% | < 10% | < 10% | 0.007 µL/min/mg | 0.007 µL/min/mg
CCCC(CCC)C(=O)O [VALPROIC ACID] | – | – | < 10% | < 10% | < 10% | – | < 10% | < 10% | < 10% | – | – | –
Cc1cc(CC(=O)O)n(C)c1C(=O)c1ccc(Cl)cc1 [ZOMEPIRAC] | 6.4 pmol | metabolite_not_detected | < 10% | < 10% | < 10% | – | < 10% | < 10% | < 10% | < 10% | – | –
